From patent US12365684B2, “Short-acting benzodiazepine salts and their polymorphic forms” (priority 2006, dated 2025)
Several values for one entry are separate records, joined by “and”; a condition that tells them apart may be missing. Identical values can stand only once. Like-named read-outs stand apart in the source and are kept apart here.

Legend:
[1] = Observed solubility of compound of formula (I) besylate in solvents; assay type: physicochemical; settings: approximate
Text: The compound also has an excess of Hydrogen bond acceptors and therefore will be suitably partnered by Hydrogen bond donating solvents. It is thus expected that the compound will prefer solubilisation in a range of polar organic solvents such as the alcohols, particularly those which provide a partially lipophillic, Hydrogen bond donating environment. This has been borne out by experimental evidence (details of solvents used are given in Example 8):
Values quoted are approximate, but experimentally confirmed.

[2] = Solid-state stability study of compound of formula (I) (appearance, HPLC content); assay type: physicochemical
Description: Method/Technique. 2 mg samples of compound of formula (I), accurately weighed, were placed in 4-mL clear glass screw-cap vials. Samples were tested at initial and after 34 days stored at 5° C./Ambient Relative Humidity (AMRH) Closed, 30° C./60% RH Closed, 40° C./75% RH Open and 60° C./AMRH Closed.

[3] = pKa determination (potentiometric titration, Sirius GlpKa); assay type: physicochemical; settings: MeOH:H2O mixtures, MeOH:H2O mixtures at 25° C., extrapolated to 0% co-solvent
Description: pka determination was performed on a Sirius GlpKa instrument with D-PAS attachment. Measurements were made by potentiometric titration in MeOH:H2O mixtures at 25° C. The titration media was ionic strength adjusted with 0.15M KCl. The values found in the MeOH:H2O mixtures were extrapolated to 0% co-solvent via a Yasuda-Shedlovsky extrapolation.

[4] = Thermodynamic aqueous solubility; assay type: physicochemical; settings: water, 25° C., 24 hrs
Description: This was measured by suspending sufficient compound in 0.25 ml of solvent (water) to give a maximum final concentration of 10 mg/ml of the parent free form of the compound. The suspension was equilibrated at 25° C. for 24 hrs followed by a pH check and filtration through a glass fibre C 96 well plate. The filtrate is then diluted down 101x. Quantitation was by HPLC with reference to a standard dissolved in DMSO at approx 0.1 mg/ml. Different volumes of the standard, diluted and undiluted tests were injected. The solubility was calculated by integration of the peak area found at the same retention time as the peak maximum in the standard injection. If there is sufficient solid in the filter plate the XRPD is normally checked for phase changes, hydrate formation, amorphization, crystallization etc.

[5] = test system: mice; test: Anaesthetic and sedative effects: loss of the righting reflex (LRR) after i.v. administration; assay type: in vivo; settings: for NUMBER OF MICE WITH LRR: eight mice per group; for LRR DURATION, mean: maximum = 90 minutes after injection
Description: The anaesthetic and sedative effects of the besylate salt Form 1 of the present invention was evaluated. The besylate (benzenesulfonic acid) salt was dissolved in physiological saline for administration of the test composition to the animal. The test composition was administered to mice, placed in individual Plexiglas cages (20×10×10 cm). Mice were injected with either vehicle or test substance by the intravenous route. The latency to sleep and the duration of anaesthesia (maximum: 90 minutes after test-substance administration) were recorded. Anaesthesia is indicated by loss of the righting reflex (LRR). The righting reflex test was performed as soon as the animals appear sedated, approximately every 20-30 seconds. Once the righting reflex is absent, duration of loss of righting reflex was measured by testing for the return of the righting reflex approximately every 20-30 seconds thereafter. Eight mice were studied per group and the test was performed blind.

[6] = Gravimetric Vapour Sorption (GVS); assay type: physicochemical; settings: 25° C., 0-90% RH range
Description: All samples were run on a Hiden IGASorp moisture sorption analyser running CFRSorp software. Sample sizes were typically 10 mg. A moisture adsorption desorption isotherm was performed as outlined below (2 scans giving 1 complete cycle). All samples were loaded/unloaded at typical room humidity and temperature (40% RH, 25° C.). All samples were analysed by XRPD post GVS analysis. The standard isotherm was performed at 25° C. at 10% RH intervals over a 0-90% RH range unless otherwise stated.

[7] = Polymorphism maturation experiment (solvent slurries), HPLC purity post 1 week; assay type: physicochemical; settings: heat/cool cycle ambient to 60° C., starting hplc purity 97.7%
Description: The solid was slurried in various solvents (see Table 11) for one week on a heat/cool cycle from ambient to 60° C. After one week the slurries were evaporated and the solids analysed by XRPD and HPLC.
• Method: Gradient, Reverse Phase • Method Duration/min: 34 • Column: Phenomenex Gemini C18 5 μm (2.0×50 mm) (Guard cartridge Phenomenex Gemini C18 guard cartridge 2×4 mm) • Column Temperature/° C.: 40 • Injection/μl: 5 • Flow Rate ml/min: 0.8 • Detection: UV • Wavelength/nm: 255 (bandwidth of 90 nm), 240 (bandwidth of 80 nm), 254 (bandwidth of 8 nm) • Phase A: 2 mmol NH4HCO3 (adjusted to pH10 with NH3 solution) Phase B: acetonitrile Timetable: […]

COC(=O)CC[C@@H]1N=C(c2ccccn2)c2cc(Br)ccc2-n2c(C)cnc21.O=S(=O)(O)c1ccccc1 [compound of formula (I) besylate]
solubility ([1]; Water): 2 mg/mL | solubility ([1]; organic solvent or mixture, 1,2-ethanediol): 60 mg/mL | solubility ([1]; organic solvent or mixture, 1,4-dioxan): 1 mg/mL | solubility ([1]; organic solvent or mixture, 2,2,2-trifluoroethanol): 1000 mg/mL | solubility ([1]; organic solvent or mixture, 2-ethoxyethanol): 20 mg/mL | solubility ([1]; organic solvent or mixture, 2-methoxyethanol): 167 mg/mL | solubility ([1]; organic solvent or mixture, Acetone): 2 mg/mL | solubility ([1]; organic solvent or mixture, Acetonitrile): > 20 mg/mL | solubility ([1]; organic solvent or mixture, Chloroform): < 0.4 mg/mL | solubility ([1]; organic solvent or mixture, Dichloromethane): < 0.3 mg/mL | solubility ([1]; organic solvent or mixture, Dimethyl sulfoxide): 500 mg/mL | solubility ([1]; organic solvent or mixture, Dimethylacetamide): 200 mg/mL | solubility ([1]; organic solvent or mixture, Dimethylformamide): 300 mg/mL | solubility ([1]; organic solvent or mixture, Ethanol): 100 mg/mL | solubility ([1]; organic solvent or mixture, Ethyl acetate): 0.2 mg/mL | solubility ([1]; organic solvent or mixture, Formamide): 350 mg/mL | solubility ([1]; organic solvent or mixture, Hexafluoropropan-2-ol): > 700 mg/mL | solubility ([1]; organic solvent or mixture, Methanol): 400 mg/mL | solubility ([1]; organic solvent or mixture, Methylbenzoate): 2 mg/mL | solubility ([1]; organic solvent or mixture, Propan-1-ol): 15 mg/mL | solubility ([1]; organic solvent or mixture, Propan-2-ol): 4.8 mg/mL | solubility ([1]; organic solvent or mixture, Tetrahydrofuran): 2.5 mg/mL

COC(=O)CC[C@@H]1N=C(c2ccccn2)c2cc(Br)ccc2-n2c(C)cnc21 [compound of formula (I), Methyl 3-[(4S)-8-bromo-1-methyl-6-(2-pyridinyl)-4H-imidazol [1,2-a][1,4]benzodiazepin-4-yl]propanoate]
% Relative to Avg. Initial % area ([2]; 5 C./AMRH Closed, 34 days): 100.52% | Appearance ([2]; 5 C./AMRH Closed, 34 days): Cream to light yellow powder | Compound of Formula (I) Content % area ([2]; 5 C./AMRH Closed, 34 days): 95.30 % area | Compound of Formula (I) Content % w/w ([2]; 5 C./AMRH Closed, 34 days): 102.6 % w/w | % Relative to Avg. Initial % area ([2]; 30 C./60% RH Closed, 34 days): 99.36% | Appearance ([2]; 30 C./60% RH Closed, 34 days): Cream to light yellow powder | Compound of Formula (I) Content % area ([2]; 30 C./60% RH Closed, 34 days): 94.20 % area | Compound of Formula (I) Content % w/w ([2]; 30 C./60% RH Closed, 34 days): 94.7 % w/w | drop in content relative to the initial % area ([2]; 30° C./60% RH Closed, 34 days): approximately 0.6% | % Relative to Avg. Initial % area ([2]; 40 C./75% RH Open, 34 days): 98.57% and 98.50% | Compound of Formula (I) Content % area ([2]; 40 C./75% RH Open, 34 days): 93.45 % area and 93.39 % area | Compound of Formula (I) Content % w/w ([2]; 40 C./75% RH Open, 34 days): 105.4 % w/w and 100.3 % w/w | % Relative to Avg. Initial % area ([2]; 60 C./AMRH Closed, 34 days): 92.57% | Compound of Formula (I) Content % area ([2]; 60 C./AMRH Closed, 34 days): 87.77 % area | Compound of Formula (I) Content % w/w ([2]; 60 C./AMRH Closed, 34 days): 93.4 % w/w and 91.1 % w/w | decrease of average % w/w content from the initial value ([2]; 34 days at 60° C./AMRH Closed): 10 % w/w | Appearance ([2]; RT, initial): Cream to light yellow powder | Compound of Formula (I) Content % area ([2]; RT, initial): 95.14 % area and 94.47 % area | Compound of Formula (I) Content % w/w ([2]; RT, initial): 100.5 % w/w and 104.1 % w/w | Avg. Initial % area ([2]; RT, initial, average of two samples): Avg = 94.81 % area | time stable with respect to appearance and content ([2]; stored at 5° C./AMRH Closed): at least 34 days | pKa ([3]; read-out: pKa of the basic centre of the imidazole ring): ~5 | pKa ([3]; read-out: pKa of the basic centre of the pyridine ring): ~2

COC(=O)CC[C@@H]1N=C(c2ccccn2)c2cc(Br)ccc2-n2c(C)cnc21.O=S(=O)(O)c1ccccc1 [besylate Form 1]
solubility [4]: 8.3 mg/mL | NUMBER OF MICE WITH LRR ([5]; 20.4 mg/kg i.v.): 2 | LRR DURATION, mean ([5]; 20.4 mg/kg i.v.): 1.7 min | LATENCY TO LRR, mean ± s.e.m. ([5]; 27.2 mg/kg i.v.): 3.0 ± 0.2 min | NUMBER OF MICE WITH LRR ([5]; 27.2 mg/kg i.v.): 5+ | LRR DURATION, mean ([5]; 27.2 mg/kg i.v.): 4.9 min | LATENCY TO LRR, mean ± s.e.m. ([5]; 34 mg/kg i.v.): 1.8 ± 0.2 min | NUMBER OF MICE WITH LRR ([5]; 34 mg/kg i.v.): 6++ | LRR DURATION, mean ([5]; 34 mg/kg i.v.): 6.0 min | LATENCY TO LRR, mean ± s.e.m. ([5]; 40.8 mg/kg i.v.): 1.6 ± 0.5 min | NUMBER OF MICE WITH LRR ([5]; 40.8 mg/kg i.v.): 6++ | LRR DURATION, mean ([5]; 40.8 mg/kg i.v.): 7.3 min | GVS uptake [6]: 2.0% | HPLC purity post 1 week ([7]; slurried in 1,4-Dioxane): 97.2 % area | HPLC purity post 1 week ([7]; slurried in 2.5% aq 1,4-Dioxane): 86 % area | HPLC purity post 1 week ([7]; slurried in 2.5% aq DCM): 97.4 % area | HPLC purity post 1 week ([7]; slurried in 2.5% aq IPA): 76.1 % area | HPLC purity post 1 week ([7]; slurried in 2.5% aq MEK): 93.9 % area | HPLC purity post 1 week ([7]; slurried in 2.5% aq MIBK): 97.3 % area | HPLC purity post 1 week ([7]; slurried in 2.5% aq MeCN): 93.3 % area | HPLC purity post 1 week ([7]; slurried in 2.5% aq THF): 93.3 % area | HPLC purity post 1 week ([7]; slurried in 2.5% aq acetone): 96.8 % area | HPLC purity post 1 week ([7]; slurried in DCM): 97.4 % area | HPLC purity post 1 week ([7]; slurried in IPA): 97.1 % area | HPLC purity post 1 week ([7]; slurried in MEK): 97.2 % area | HPLC purity post 1 week ([7]; slurried in MIBK): 97.7 % area | HPLC purity post 1 week ([7]; slurried in MeCN): 94.3 % area | HPLC purity post 1 week ([7]; slurried in MtBE): 97.7 % area | HPLC purity post 1 week ([7]; slurried in THF): 97.6 % area | HPLC purity post 1 week ([7]; slurried in acetone): 97.5 % area | HPLC purity post 1 week ([7]; slurried in iPrOAc): 97.5 % area
